Molecules are shown by their SMILES.

T1 sequence (Q9BUB5 1-424 isoform Q9BUB5-2 T344D): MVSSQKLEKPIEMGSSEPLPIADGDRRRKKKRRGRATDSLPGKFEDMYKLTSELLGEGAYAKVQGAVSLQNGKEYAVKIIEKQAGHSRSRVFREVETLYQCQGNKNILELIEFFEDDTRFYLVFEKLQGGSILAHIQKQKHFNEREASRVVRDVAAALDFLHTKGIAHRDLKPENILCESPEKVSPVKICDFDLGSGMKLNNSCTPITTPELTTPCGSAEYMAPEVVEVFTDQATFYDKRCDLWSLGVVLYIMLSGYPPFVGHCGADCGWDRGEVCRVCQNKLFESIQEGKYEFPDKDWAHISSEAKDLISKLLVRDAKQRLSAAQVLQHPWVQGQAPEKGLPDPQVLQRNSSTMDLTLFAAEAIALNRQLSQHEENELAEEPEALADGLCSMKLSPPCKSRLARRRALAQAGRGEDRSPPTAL

This assay concerns the target T1, human full-length MKNK1 (Homo sapiens, UniProt Q9BUB5, T385D).
T1 construct: purchased Carna Biosciences 02-145; host or cells: insect cells (baculovirus expression system)
In words: MKNK1 kinase high ATP assay (TR-FRET). The settings on record: high ATP (2 mM final), 15 min preincubation with enzyme, GST-MKNK1 (T344D). It counts as biochemical. The gist of the method:
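GST-tagged full-length human MKNK1 from insect cells, preincubated 15 min with compound at 22° C in HEPES pH 7.5/MgCl2/DTT buffer, then reacted 30 min with 2 mM ATP and 0.06 μM biotinylated peptide (final). Phosphopeptide detected by TR-FRET (anti-pS6 pSer236/Eu-ProteinG, streptavidin-XL665), 665/620 ratio normalised to no-enzyme and no-inhibitor controls.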
Take `CN(C)C1CCN(C(=O)[C@H]2CCc3c(sc4ncnc(Nc5cnc6[nH]ncc6c5)c34)C2)CC1` [Example 107, [4-(Dimethylamino)piperidin-1-yl][(7S)-4-(1H-pyrazolo[3,4-b]pyridin-5-ylamino)-5,6,7,8-tetrahydro[1]benzothieno[2,3-d]pyrimidin-7-yl]methanone]: half-maximal inhibition (IC50) required 13.3 nM.
The value for `COc1nc2[nH]ncc2cc1Nc1ncnc2sc3c(c12)CC[C@H](C(=O)N1CC(C#N)C1)C3` [Example 108, 1-({(7S)-4-[(6-Methoxy-1H-pyrazolo[3,4-b]pyridin-5-yl)amino]-5,6,7,8-tetrahydro[1]benzothieno[2,3-d]pyrimidin-7-yl}carbonyl)azetidine-3-carbonitrile] was 0.7 nM.
With `COc1nc2[nH]ncc2cc1Nc1ncnc2sc3c(c12)CC[C@H](C(=O)N1CC2(COC2)C1)C3` [Example 109] the figure was 0.7 nM; with `COc1nc2[nH]ncc2cc1Nc1ncnc2sc3c(c12)CC[C@H](C(=O)N1CC[C@@H](N(C)C)C1)C3` [Example 110, [(3R)-3-(Dimethylamino)pyrrolidin-1-yl]{(7S)-4-[(6-methoxy-1H-pyrazolo[3,4-b]pyridin-5-yl)amino]-5,6,7,8-tetrahydro[1]benzothieno[2,3-d]pyrimidin-7-yl}methanone], 0.4 nM.
With `COc1nc2[nH]ncc2cc1Nc1ncnc2sc3c(c12)CC[C@H](C(=O)N1CC[C@H](N(C)C)C1)C3` [Example 111, [(3S)-3-(Dimethylamino)pyrrolidin-1-yl]{(7S)-4-[(6-methoxy-1H-pyrazolo[3,4-b]pyridin-5-yl)amino]-5,6,7,8-tetrahydro[1]benzothieno[2,3-d]pyrimidin-7-yl}methanone] the figure was 1.3 nM; with `CCN(C)C(=O)[C@H]1CCc2c(sc3ncnc(Nc4cc5cn[nH]c5nc4O)c23)C1` [Example 112, (7S)—N-Ethyl-4-[(6-hydroxy-1H-pyrazolo[3,4-b]pyridin-5-yl)amino]-N-methyl-5,6,7,8-tetrahydro[1]benzothieno[2,3-d]pyrimidine-7-carboxamide], 4.6 nM; with `CCCN(C)C(=O)[C@H]1CCc2c(sc3ncnc(Nc4cc5cn[nH]c5nc4O)c23)C1` [Example 113, (7S)-4-[(6-Hydroxy-1H-pyrazolo[3,4-b]pyridin-5-yl)amino]-N-methyl-N-propyl-5,6,7,8-tetrahydro[1]benzothieno[2,3-d]pyrimidine-7-carboxamide], 3.3 nM.
On to `CC(C)N(C)C(=O)[C@H]1CCc2c(sc3ncnc(Nc4cc5cn[nH]c5nc4O)c23)C1` [Example 114, (7S)-4-[(6-Hydroxy-1H-pyrazolo[3,4-b]pyridin-5-yl)amino]-N-methyl-N-(propan-2-yl)-5,6,7,8-tetrahydro[1]benzothieno[2,3-d]pyrimidine-7-carboxamide], for which half-maximal inhibition (IC50) required 4.6 nM.
The value for `O=C([C@H]1CCc2c(sc3ncnc(Nc4cc5cn[nH]c5nc4O)c23)C1)N1C[C@@H]2C[C@H]1CO2` [Example 115] was 6.9 nM; that for `CN1CCN(C(=O)[C@H]2CCc3c(sc4ncnc(Nc5cc6cn[nH]c6nc5O)c34)C2)CC1` [Example 116] was 2.1 nM.
The value for `CN(C)C1CCN(C(=O)[C@H]2CCc3c(sc4ncnc(Nc5cc6cn[nH]c6nc5O)c34)C2)CC1` [Example 117, [4-(Dimethylamino)piperidin-1-yl]{(7S)-4-[(6-hydroxy-1H-pyrazolo[3,4-b]pyridin-5-yl)amino]-5,6,7,8-tetrahydro[1]benzothieno[2,3-d]pyrimidin-7-yl}methanone] was 1.4 nM; that for `CN(C)CCCNC(=O)c1[nH]c2ncnc(Nc3cc4cn[nH]c4cn3)c2c1Br` [Example 118, 5-Bromo-N-[3-(dimethylamino)propyl]-4-(1H-pyrazolo[3,4-c]pyridin-5-ylamino)-7H-pyrrolo[2,3-d]pyrimidine-6-carboxamide] was 8.1 nM; that for `CN(C)CCCN(C)C(=O)c1[nH]c2ncnc(Nc3cc4cn[nH]c4cn3)c2c1Br` [Example 119, 5-Bromo-N-[3-(dimethylamino)propyl]-N-methyl-4-(1H-pyrazolo[3,4-c]pyridin-5-ylamino)-7H-pyrrolo[2,3-d]pyrimidine-6-carboxamide] was 67.7 nM.
With `CN(C)CCNC(=O)c1[nH]c2ncnc(Nc3cc4cn[nH]c4cn3)c2c1Br` [Example 120, 5-Bromo-N-[2-(dimethylamino)ethyl]-4-(1H-pyrazolo[3,4-c]pyridin-5-ylamino)-7H-pyrrolo[2,3-d]pyrimidine-6-carboxamide] the figure was 14.5 nM; with `C[C@H]1COCCN1C(=O)c1[nH]c2ncnc(Nc3cc4cn[nH]c4cn3)c2c1Br` [Example 121, [5-Bromo-4-(1H-pyrazolo[3,4-c]pyridin-5-ylamino)-7H-pyrrolo[2,3-d]pyrimidin-6-yl][(3S)-3-methylmorpholin-4-yl]methanone], 30.1 nM.
Regarding `CN(C)C(=O)c1nc2c(Nc3cnc4[nH]ncc4c3)ncnc2s1` [Example 123, N,N-Dimethyl-7-(1H-pyrazolo[3,4-b]pyridin-5-ylamino)[1,3]thiazolo[5,4-d]pyrimidine-2-carboxamide], inhibition was half-maximal at 230 nM (IC50).
With `CN(C)CCNC(=O)c1[nH]c2ncnc(Nc3cnc4[nH]ncc4c3)c2c1Br` [Example 124, 5-Bromo-N-[2-(dimethylamino)ethyl]-4-(1H-pyrazolo[3,4-b]pyridin-5-ylamino)-7H-pyrrolo[2,3-d]pyrimidine-6-carboxamide] the figure was 65.9 nM.
With `CN(C)CCCNC(=O)c1[nH]c2ncnc(Nc3cnc4[nH]ncc4c3)c2c1Br` [Example 125, 5-Bromo-N-[3-(dimethylamino)propyl]-4-(1H-pyrazolo[3,4-b]pyridin-5-ylamino)-7H-pyrrolo[2,3-d]pyrimidine-6-carboxamide] the figure was 29.2 nM; with `O=C(c1nc2c(Nc3cnc4[nH]ncc4c3)ncnc2s1)N1CCCCC1` [Example 126, Piperidin-1-yl[7-(1H-pyrazolo[3,4-b]pyridin-5-ylamino)[1,3]thiazolo[5,4-d]pyrimidin-2-yl]methanone], 171 nM; with `CN(C)C1CCN(C(=O)c2[nH]c3ncnc(Nc4cnc5[nH]ncc5c4)c3c2Br)CC1` [Example 127, [5-Bromo-4-(1H-pyrazolo[3,4-b]pyridin-5-ylamino)-7H-pyrrolo[2,3-d]pyrimidin-6-yl][4-(dimethylamino)piperidin-1-yl]methanone], 76.8 nM.
Regarding `CN(C)C(=O)CCN(C)C(=O)c1nc2c(Nc3cnc4[nH]ncc4c3)ncnc2s1` [Example 129, N-[3-(Dimethylamino)-3-oxopropyl]-N-methyl-7-(1H-pyrazolo[3,4-b]pyridin-5-ylamino)[1,3]thiazolo[5,4-d]pyrimidine-2-carboxamide], the IC50 (as a rule, the concentration at which inhibition is half-maximal) was 4290 nM.
The value for `COc1nc2[nH]ncc2cc1Nc1ncnc2sc(C(=O)N(C)CC(=O)N(C)C)nc12` [Example 130, N-[2-(Dimethylamino)-2-oxoethyl]-7-[(6-methoxy-1H-pyrazolo[3,4-b]pyridin-5-yl)amino]-N-methyl[1,3]thiazolo[5,4-d]pyrimidine-2-carboxamide] was 212 nM; that for `COc1nc2[nH]ncc2cc1Nc1ncnc2[nH]c(C(=O)N(C)CCCN(C)C)c(Br)c12` [Example 131, 5-Bromo-N-[3-(dimethylamino)propyl]-4-[(6-methoxy-1H-pyrazolo[3,4-b]pyridin-5-yl)amino]-N-methyl-7H-pyrrolo[2,3-d]pyrimidine-6-carboxamide] was 6.7 nM; that for `CN(C)CCCN(C)C(=O)c1[nH]c2ncnc(Nc3cc4cn[nH]c4nc3O)c2c1Br` [Example 132, 5-Bromo-N-[3-(dimethylamino)propyl]-4-[(6-hydroxy-1H-pyrazolo[3,4-b]pyridin-5-yl)amino]-N-methyl-7H-pyrrolo[2,3-d]pyrimidine-6-carboxamide] was 23.4 nM.
The value for `COc1nc2[nH]ncc2cc1Nc1ncnc2sc(C(=O)N3CCCCC3)nc12` [Example 133, {7-[(6-Methoxy-1H-pyrazolo[3,4-b]pyridin-5-yl)amino][1,3]thiazolo[5,4-d]pyrimidin-2-yl}(piperidin-1-yl)methanone] was 150 nM.
With `O=C(c1[nH]c2ncnc(Nc3cc4cn[nH]c4nc3O)c2c1Br)N1CCCCC1` [Example 134] the figure was 10.8 nM; with `COc1nc2[nH]ncc2cc1Nc1ncnc2[nH]c(C(=O)N3CCOC[C@@H]3C)c(Br)c12` [Example 135], 7.3 nM.
On to `COc1nc2[nH]ncc2cc1Nc1ncnc2sc3c(c12)CC[C@H](C(=O)N(C)CCC(F)(F)F)C3` [Example 136, (7S)-4-[(6-Methoxy-1H-pyrazolo[3,4-b]pyridin-5-yl)amino]-N-methyl-N-(3,3,3-trifluoropropyl)-5,6,7,8-tetrahydro[1]benzothieno[2,3-d]pyrimidine-7-carboxamide], for which the midpoint of inhibition, the IC50, lay at 0.5 nM.
In turn, `CN(C)C(=O)CCN(C)C(=O)c1nc2c(Nc3cc4cn[nH]c4cn3)ncnc2s1` [Example 137, N-[3-(Dimethylamino)-3-oxopropyl]-N-methyl-7-(1H-pyrazolo[3,4-c]pyridin-5-ylamino)[1,3]thiazolo[5,4-d]pyrimidine-2-carboxamide] yielded an IC50 of 203 nM.
In turn, `COc1nc2[nH]ncc2cc1Nc1ncnc2sc(C(=O)N(C)CCC(=O)N(C)C)nc12` [Example 138, N-[3-(Dimethylamino)-3-oxopropyl]-7-[(6-methoxy-1H-pyrazolo[3,4-b]pyridin-5-yl)amino]-N-methyl[1,3]thiazolo[5,4-d]pyrimidine-2-carboxamide] registered an IC50 of 114 nM.
`CN(CCC(F)(F)F)C(=O)[C@H]1CCc2c(sc3ncnc(Nc4cc5cn[nH]c5nc4O)c23)C1` [Example 139, (7S)-4-[(6-Hydroxy-1H-pyrazolo[3,4-b]pyridin-5-yl)amino]-N-methyl-N-(3,3,3-trifluoropropyl)-5,6,7,8-tetrahydro[1]benzothieno[2,3-d]pyrimidine-7-carboxamide] showed a concentration for half-maximal inhibition (IC50) of 4.7 nM.

Values taken from patent US20160159789A1, “SUBSTITUTED PYRAZOLOPYRIDINES” (BAYER PHARMA AKTIENGESELLSCHAFT, priority 2013, published 2016).
